Test results: ChEMBL document CHEMBL1201862, “PubChem BioAssay data set” (2004)
“And” between values parts separate entries of the source, which are not always exact repeats. Identical values can stand only once. The source made the active and inactive calls.

How the values were obtained:
[1] = Trypanosoma cruzi growth suppression in host cells – NIH3T3 host cells, beta-gal luminescence, confirmation (AID 2044); format: functional, cell-based;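 note: intracellular parasites grown in NIH/3T3 mouse fibroblasts as host cells; luminescent beta-galactosidase reporter signal from transgenic T. cruzi replicating inside host cells; inhibitors lower the luminescence signal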
[2] = NIH3T3 cell viability loss – ATP luminescence, mouse fibroblasts, counter-screen, dose response (AID 2010); format: functional, cell-based;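 note: cells exposed to compound for about 90 hours before reading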
[3] = system: Streptococcus sp. 'group A'; assay: Streptococcus pyogenes SK(-)GAS viability under kanamycin – luminescence, BacTiterGlo, confirmation, counter-screen for streptokinase expression inhibitor project, dose response (AID 1900); format: functional, organism-based
Streptokinase A = molecular target: T1, Streptokinase A (Streptococcus pyogenes serotype M1, UniProt P10520); assay: viability-normalized secreted streptokinase activity reduction – plasminogen activation absorbance, OD405, dose response (AID 1914); format: functional, Streptococcus pyogenes M1 GAS;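 note: secreted streptokinase activity via plasminogen activation per viability signal from cell pellet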
T1 sequence (P10520 whole entry): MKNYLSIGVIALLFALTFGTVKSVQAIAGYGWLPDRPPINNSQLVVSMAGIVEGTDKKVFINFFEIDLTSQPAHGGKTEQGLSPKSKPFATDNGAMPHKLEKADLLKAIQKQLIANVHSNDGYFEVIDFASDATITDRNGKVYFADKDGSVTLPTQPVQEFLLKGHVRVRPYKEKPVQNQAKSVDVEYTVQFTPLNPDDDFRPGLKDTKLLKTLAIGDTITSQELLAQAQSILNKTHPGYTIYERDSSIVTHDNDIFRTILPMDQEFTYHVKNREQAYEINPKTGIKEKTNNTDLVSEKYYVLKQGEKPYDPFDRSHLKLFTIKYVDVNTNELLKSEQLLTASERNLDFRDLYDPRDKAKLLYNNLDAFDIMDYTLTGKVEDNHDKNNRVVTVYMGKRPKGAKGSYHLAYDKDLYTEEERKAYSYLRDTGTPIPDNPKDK

Streptococcus = assay: GAS UMAA2166 growth inhibition – luminescence, BacTiterGlo, counter-screen for streptokinase expression inhibitor project, dose response (AID 1915); format: functional, organism-based;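 note: potency for reduction of bacterial viability or growth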
Cytochrome P450 2C19 = Cytochrome P450 2C19 (Homo sapiens, UniProt P33261); assay: Cytochrome panel assay with activity outcomes. Panel member name: p450-cyp2c19 Compounds with AC50 equal or less than 10 uM are considered active; format: functional
Cytochrome P450 2C19, sequence (P33261 whole entry): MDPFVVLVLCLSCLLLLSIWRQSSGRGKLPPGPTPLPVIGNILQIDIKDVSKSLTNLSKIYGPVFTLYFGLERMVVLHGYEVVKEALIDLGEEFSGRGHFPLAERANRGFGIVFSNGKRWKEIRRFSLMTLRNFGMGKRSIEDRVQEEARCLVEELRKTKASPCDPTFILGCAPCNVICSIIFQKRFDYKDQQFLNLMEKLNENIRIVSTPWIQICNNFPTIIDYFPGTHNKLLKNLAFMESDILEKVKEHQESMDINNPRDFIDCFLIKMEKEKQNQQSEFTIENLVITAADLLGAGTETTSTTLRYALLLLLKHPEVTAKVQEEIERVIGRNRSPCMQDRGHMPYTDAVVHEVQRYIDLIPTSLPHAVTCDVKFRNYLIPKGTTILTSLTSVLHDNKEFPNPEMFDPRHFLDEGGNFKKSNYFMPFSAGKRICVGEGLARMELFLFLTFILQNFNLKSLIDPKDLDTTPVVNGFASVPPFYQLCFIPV

Cytochrome P450 1A2 = molecular target: T2, Cytochrome P450 1A2 (Homo sapiens, UniProt P05177);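 note: PubChem cytochrome P450 panel assay, CYP1A2 panel member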
T2 sequence (P05177 whole entry): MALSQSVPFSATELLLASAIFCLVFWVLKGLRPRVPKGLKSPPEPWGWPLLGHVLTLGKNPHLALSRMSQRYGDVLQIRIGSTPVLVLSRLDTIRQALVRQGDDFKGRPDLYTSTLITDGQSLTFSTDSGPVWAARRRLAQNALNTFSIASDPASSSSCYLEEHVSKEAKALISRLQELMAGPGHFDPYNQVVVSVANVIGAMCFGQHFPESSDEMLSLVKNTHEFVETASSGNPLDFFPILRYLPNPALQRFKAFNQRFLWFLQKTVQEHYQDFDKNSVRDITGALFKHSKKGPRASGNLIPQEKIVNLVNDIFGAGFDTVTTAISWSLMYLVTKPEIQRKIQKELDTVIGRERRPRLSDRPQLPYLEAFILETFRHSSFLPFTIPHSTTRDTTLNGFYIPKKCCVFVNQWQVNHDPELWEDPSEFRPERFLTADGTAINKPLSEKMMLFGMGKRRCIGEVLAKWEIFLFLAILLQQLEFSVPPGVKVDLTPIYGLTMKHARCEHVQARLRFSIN

Cytochrome P450 3A4 = Cytochrome P450 3A4 (Homo sapiens, UniProt P08684);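 note: CYP3A4 tested as one member of a cytochrome P450 panel screen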
Cytochrome P450 3A4, sequence (P08684 whole entry): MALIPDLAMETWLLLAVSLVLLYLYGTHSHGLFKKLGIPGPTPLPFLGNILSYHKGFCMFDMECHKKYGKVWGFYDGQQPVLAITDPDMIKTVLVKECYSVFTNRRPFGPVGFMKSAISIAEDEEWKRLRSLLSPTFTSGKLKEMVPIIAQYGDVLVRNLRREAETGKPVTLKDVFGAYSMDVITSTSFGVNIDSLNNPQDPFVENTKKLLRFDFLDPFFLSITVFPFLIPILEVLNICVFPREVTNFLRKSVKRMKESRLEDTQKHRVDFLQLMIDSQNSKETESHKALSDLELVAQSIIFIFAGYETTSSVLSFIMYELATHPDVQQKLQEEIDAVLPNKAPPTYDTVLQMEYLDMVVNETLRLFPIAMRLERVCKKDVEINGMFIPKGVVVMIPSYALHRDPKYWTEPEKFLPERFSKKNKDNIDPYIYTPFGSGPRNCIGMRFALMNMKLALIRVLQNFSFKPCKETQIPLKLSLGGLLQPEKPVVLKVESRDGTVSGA

COc1ccc(CC(=O)NCC2CCCN(Cc3cc(OC)cc(OC)c3)C2)cc1 (stereo not given)
EC50 [1]: 0.197 µM (active)
EC50 [2]: > 30 µM (not active)

COC(=O)c1ccc(Oc2nc3ccccc3n3c(C)nnc23)cc1
EC50 [3]: 3.82 µM (active)
EC50 (Streptokinase A): > 150 µM (not active)
EC50 (Streptococcus): 61.2 µM (active)

S=C(Nc1ccccc1Cl)N(Cc1ccccc1)Cc1cccnc1
EC50 [1]: 0.992 µM (active)
EC50 [2]: > 60 µM (not active)

O=S(=O)(Cc1nnnn1-c1ccccc1)c1ccc(F)cc1
EC50 [3]: > 150 µM (not active)
EC50 (Streptokinase A): > 150 µM (not active)
EC50 (Streptococcus): > 150 µM (not active)

O=C(CSc1nnc(NC(=O)c2ccccc2[N+](=O)[O-])s1)NC1CCCC1
EC50 [3]: > 150 µM (not active)
EC50 (Streptokinase A): > 150 µM (not active)
EC50 (Streptococcus): > 150 µM (not active)

Cc1nc(N2CCN(c3ccccc3O)CC2)c2c(-c3ccccc3)csc2n1
EC50 [3]: 15.1 µM (active)
EC50 (Streptokinase A): 34.4 µM (active)
EC50 (Streptococcus): > 150 µM (not active)

CC(C)=CCC/C(C)=C/CO/N=C1/C[C@@H](O)[C@@H](O)[C@@H]2[C@@H]3C(=O)N(Cc4ccccc4)C(=O)[C@H]3CC[C@H]12
AC50 (Cytochrome P450 2C19; read-out: AC50): 0.0631 µM (inconclusive)

O=C(O)CCCc1ccc2ccccc2c1
AC50 (Cytochrome P450 1A2): 3.16 µM (inconclusive)

Cc1oc2c(C)c(O)ccc2c(=O)c1-c1ccc2ccccc2n1
AC50 (Cytochrome P450 2C19; read-out: AC50): 2.82 µM (inconclusive)
AC50 (Cytochrome P450 3A4): 7.94 µM (inconclusive)

CCCOc1ccc(-c2nn(-c3ccccc3)cc2/C=C2\SC(N)=NC2=O)cc1C
EC50 [1]: 1.04 µM (active)
EC50 [2]: > 60 µM (not active)

Oc1cc2c(c(Cl)c1O)CCNC[C@H]2c1ccccc1
AC50 (Cytochrome P450 3A4): 39.8 µM (inconclusive) and 12.6 µM (inconclusive)

CC(=O)NCCNc1ncnc2ccc(-c3ccccc3C#N)cc12
AC50 (Cytochrome P450 2C19; read-out: AC50): 10 µM (inconclusive)
AC50 (Cytochrome P450 3A4): 25.1 µM (inconclusive)

O=C(Nc1ccc(N2CCCCC2)c(Cl)c1)c1ccc(N2CCOCC2)c([N+](=O)[O-])c1
EC50 [1]: 1.06 µM (active)
EC50 [2]: > 60 µM (not active)

COc1cc(C(=O)Nc2nc(-c3ccc(C)cc3)cs2)ccc1OCC(=O)N1CCOCC1
EC50 [1]: 2.04 µM (active)
EC50 [2]: > 60 µM (inconclusive)

Cc1cc(C)cc(C(=O)N2CCC(CCC(=O)NC3CC3)CC2)c1
EC50 [3]: > 150 µM (not active)
EC50 (Streptokinase A): > 150 µM (not active)
EC50 (Streptococcus): > 150 µM (not active)

CCOC(=O)N1CCN(C(=O)c2cc3n(n2)C(C(F)(F)F)CC(c2ccc4c(c2)OCO4)N3)CC1 (stereo not given)
EC50 [3]: 62.1 µM (active)
EC50 (Streptokinase A): > 150 µM (not active)
EC50 (Streptococcus): > 150 µM (not active)

CN(C)c1ncc2nc(CCc3ccccc3)c(=O)n(CCC#N)c2n1
AC50 (Cytochrome P450 3A4): 20 µM (inconclusive)

Cc1ccc(C(=O)NCc2ccc(N3CCN(C(=O)OC(C)(C)C)CC3)cc2)cc1
AC50 (Cytochrome P450 2C19; read-out: AC50): 14.1 µM (inconclusive)

Cc1ccc(NC(=O)C2CC2C)cc1S(=O)(=O)N1CCOCC1 (stereo not given)
EC50 [1]: 1.91 µM (active)
EC50 [2]: > 30 µM (not active)

CN(C)Cc1ccccc1-c1cc(NCc2cccs2)ncn1
AC50 (Cytochrome P450 3A4): 10 µM (inconclusive)

N#Cc1ccc(CN2CCC3(CC2)CCN(S(=O)(=O)c2ccccc2)CC3)cc1
AC50 (Cytochrome P450 3A4): 20 µM (inconclusive)

CNc1ncnc2ccc(-c3ccccc3C#N)cc12
AC50 (Cytochrome P450 3A4): 12.6 µM (inconclusive)

CCSC1=NC2(CCCCC2)Nc2sc3c(c21)CCCC3
EC50 [1]: 2.23 µM (active)
EC50 [2]: 20.6 µM (active)

COc1ccc(C(=O)c2ccc(N3CCN(C4CC(=O)NC4=O)CC3)cc2)cc1F (stereo not given)
EC50 [3]: 2.99 µM (active)
EC50 (Streptokinase A): > 150 µM (not active)
EC50 (Streptococcus): 33.3 µM (active)

COC(=O)[C@@]1(Cc2ccc(OC)cc2)[C@H]2c3cc(C(=O)N4CCCC4)n(Cc4ccc(OC)c(OC)c4)c3C[C@H]2CN1C(=O)c1ccccc1
AC50 (Cytochrome P450 2C19; read-out: AC50): 15.8 µM (inconclusive)

Cc1cc(C(F)F)n2nc(C(=O)Nc3cccnc3Cl)nc2n1
AC50 (Cytochrome P450 2C19): inconclusive

CC(C)=NO[C@@H](C)CN1CCCCc2nc(C)c(C)cc21
AC50 (Cytochrome P450 3A4): 3.98 µM (inconclusive)

CC(C)=CCC/C(C)=C/CC/C(C)=C/CSc1ccccc1C(=O)O [SALIRASIB]
AC50 (Cytochrome P450 3A4): 31.6 µM (inconclusive)

COc1ccc(N(CC(=O)NCCSCc2cccc(Cl)c2)S(C)(=O)=O)cc1Cl
EC50 [3]: 13 µM (active)
EC50 (Streptokinase A): 23.2 µM (active)
EC50 (Streptococcus): 79.6 µM (active)

CC(C)C[C@H](NC(=O)c1[nH]cnc1C(=O)Nc1ccccc1)C(=O)OC(C)(C)C
EC50 [3]: 3.21 µM (active)
EC50 (Streptococcus): 7.19 µM (active)

O=C(NC(=S)NNC(=O)c1cccs1)c1ccco1
EC50 [3]: 7.02 µM (active)
EC50 (Streptokinase A): > 150 µM (not active)
EC50 (Streptococcus): 36.2 µM (active)

Cc1cccc(NC(=O)NCc2ccc3c(c2)OCO3)c1
EC50 [3]: > 150 µM (not active)
EC50 (Streptokinase A): > 150 µM (not active)
EC50 (Streptococcus): > 150 µM (not active)

COc1ccc(C2CC(c3ccc(Br)cc3)=NN2C(=O)CSC2=NN3CCCC(=O)N=C3S2)cc1 (stereo not given)
EC50 [1]: 4.07 µM (active)
EC50 [2]: > 60 µM (not active)

Cc1[nH]c2ccccc2c1C(=O)COC(=O)c1ccc2c(=O)n3c(nc2c1)CCC3
EC50 [3]: 1.74 µM (active)
EC50 (Streptococcus): 1.99 µM (active)

Cc1ccc(CNC(=O)COC(=O)c2cnccn2)cc1
AC50 (Cytochrome P450 2C19): inconclusive
AC50 (Cytochrome P450 3A4): 17.8 µM (inconclusive)

COc1ccccc1CCNC(=O)C(=O)c1cn(CC(=O)N2CCCC2)c2ccccc12
EC50 [3]: > 150 µM (not active)
EC50 (Streptokinase A): > 150 µM (not active)
EC50 (Streptococcus): > 150 µM (not active)

O=c1cnc2cnc(Oc3ccccc3)nc2n1Cc1ccc(F)cc1
AC50 (Cytochrome P450 3A4): 20 µM (inconclusive)

COc1ccc(C(CCN)c2ccc3c(c2)OCO3)cc1 (stereo not given)
EC50 [1]: 7.31 µM (active)
EC50 [2]: > 60 µM (not active)

CO/C(O)=C1\C(C)=NC2=C(C(=O)c3ccccc32)C1c1ccc(-c2ccc(C(=O)O)cc2)o1 (stereo not given)
EC50 [3]: 3.77 µM (active)
EC50 (Streptokinase A): > 150 µM (not active)
EC50 (Streptococcus): 69 µM (active)

CCc1ccc(CNc2ccc3c(c2)ncn3C(C)(C)C)cc1
EC50 [3]: 10.7 µM (active)
EC50 (Streptokinase A): > 150 µM (not active)
EC50 (Streptococcus): > 150 µM (not active)

CCOC(=O)c1c(NC(=O)CN2CCCCC2)sc2c1CCN(C(=O)OCC)C2
EC50 [1]: 1.13 µM (active)
EC50 [2]: > 60 µM (not active)

Brc1ccc(Nc2ncnc3[nH]ncc23)cc1
EC50 [3]: 5.77 µM (active)
EC50 (Streptokinase A): > 150 µM (not active)
EC50 (Streptococcus): 143 µM (active)

CC(C)Oc1cccc(C(=O)NC(=S)N2CCN(c3ccc(C(F)(F)F)cc3[N+](=O)[O-])CC2)c1
AC50 (Cytochrome P450 3A4): 14.1 µM (inconclusive)

CC(CCc1ccccc1)NC(=O)/C=C/c1ccccc1 (stereo not given)
AC50 (Cytochrome P450 3A4): 25.1 µM (inconclusive)

O=C(NC1CCN(Cc2ccccc2)CC1)c1ccc2c(c1)nc(O)n2Cc1ccc(F)cc1
EC50 [1]: 0.485 µM (active)
EC50 [2]: > 60 µM (inconclusive)

O=[N+]([O-])c1nn(-c2ccccc2)[n+]([O-])c1N1CCN(c2ccccc2F)CC1
EC50 [1]: 0.458 µM (active)
EC50 [2]: > 60 µM (not active)

COc1cc(-c2nc3ccccn3c2NCc2ccccc2)ccc1SC1CCCCC1
EC50 [1]: 0.954 µM (active)
EC50 [2]: > 60 µM (not active)

COc1cc(-c2nc(-c3ccc4c(c3)-c3ccccc3S4(=O)=O)c(-c3ccccc3)[nH]2)cc(OC)c1OC
EC50 [1]: 1.81 µM (active)
EC50 [2]: > 60 µM (not active)

CC(C)NC(=O)N1CCC2(CC1)CCN(C(=O)c1ccncc1)CC2
AC50 (Cytochrome P450 3A4): 25.1 µM (inconclusive)

COCC1CCCCN1C(=O)c1ccc2oc(CCCc3ccccc3)nc2c1 (stereo not given)
EC50 [3]: 98.8 µM (active)
EC50 (Streptokinase A): > 150 µM (not active)
EC50 (Streptococcus): > 150 µM (not active)

Cc1ccc(C)c(N(CC(=O)NC2CCCC2)C(=O)c2cc3cc4cccc(C)c4nc3s2)c1
AC50 (Cytochrome P450 2C19; read-out: AC50): 6.31 µM (inconclusive)
AC50 (Cytochrome P450 3A4): 2.51 µM (inconclusive)

CC(=O)Nc1ccc(C2C(=O)c3ccccc3C2=O)cc1
EC50 [3]: 31.3 µM (active)
EC50 (Streptokinase A): > 150 µM (not active)
EC50 (Streptococcus): > 150 µM (not active)

COc1cc(COc2cc(N)c(Cl)cc2C(=O)CCC2CCN(CCNS(C)(=O)=O)CC2)cc(OC)c1
AC50 (Cytochrome P450 2C19; read-out: AC50): 15.8 µM (inconclusive)
